In patent US11992497B2 (priority 2021, dated 2024):

What was measured:
rUGT1A9 = target: T1, rUGT1A9 (Homo sapiens, UniProt O60656); assay: Inhibition of CBG glucuronidation by Compound 1; assay type: biochemical; details: for CBG detected, Percent of control / CBG glucuronide formed, Percent of control: rUGT1A9; for CBG detected / CBG glucuronide formed: rUGT1A9, 4 min
T1 sequence (O60656 26-530): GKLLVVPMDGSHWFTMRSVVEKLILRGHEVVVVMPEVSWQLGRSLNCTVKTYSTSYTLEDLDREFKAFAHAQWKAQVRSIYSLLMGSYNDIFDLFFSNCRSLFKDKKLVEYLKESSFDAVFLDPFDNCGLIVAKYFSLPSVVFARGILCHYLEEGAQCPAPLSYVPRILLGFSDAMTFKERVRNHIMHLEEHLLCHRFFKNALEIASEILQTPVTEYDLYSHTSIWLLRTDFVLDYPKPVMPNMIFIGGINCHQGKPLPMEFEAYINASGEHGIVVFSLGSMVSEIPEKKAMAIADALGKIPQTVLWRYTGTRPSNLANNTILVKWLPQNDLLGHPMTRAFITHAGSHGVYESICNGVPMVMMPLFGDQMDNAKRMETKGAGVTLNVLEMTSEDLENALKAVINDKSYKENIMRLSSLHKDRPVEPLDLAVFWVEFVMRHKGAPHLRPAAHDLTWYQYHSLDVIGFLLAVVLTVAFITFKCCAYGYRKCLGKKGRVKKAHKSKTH
Experimental: (§1) The purpose of this experiment was to determine if Compound 1 can inhibit the glucuronidation of CBG, as both are substrates for the two major isoforms responsible for CBG glucuronidation.
(§2) The ability of Compound 1 to inhibit the metabolism of CBG by UGT1A9 and UGT2B7 enzymes was investigated to ascertain the ICso values for direct inhibition. The incubation conditions (substrate concentration, incubation time and protein concentration) were determined in Part 2 of the protocol such that CBG metabolism remains near initial rate conditions (e.g., 20-30% substrate loss).
(§3) Preliminary experiments were conducted in Part I of the protocol, first to establish the HPLC/MS/MS bioanalytical methods for CBG and CBG glucuronide. […] The second set of preliminary experiments (Part 2), as mentioned, were conducted to optimize the incubation conditions as described above. Incubations (at 37 C) contained Tris-HCl buffer (100 mM, pH 7.7), MgCl2 (10 mM), EDTA (1 mM, pH 7.4) and UDP-glucuronic acid (UDPGA, 10 mM). CBG was added to each incubation in DMSO such that the final percent of DMSO was 1% v/v, or less. Reactions were terminated by the addition of an equal volume of stop reagent, acetonitrile containing an internal standard. The samples were centrifuged (e.g., 920 RCF for 10 minutes at 10° C.), and the supernatant fractions were analyzed by LC-MS/MS to determine the amount of CBG remaining and formation of one metabolite (CBG glucuronide).
(§4) To examine its ability to act as a direct inhibitor of the above listed enzymes, Compound 1 was be added to recombinant human UGT enzyme together with CBG. Reactions were initiated with UDPGA and were carried out in duplicate. For all assays, reactions were terminated by the addition of acetonitrile with or without 2% v/v formic acid, including the internal standard.
(§5) Authentic metabolite reference standards were used for quantitation of the probe substrate metabolites and as internal standards. Based on the information obtained in the Part 2 experiments, the following table summarizes the experiments performed, assessing the inhibitory effects of Compound 1 was conducted as follows:
(§6) The amounts of CBG present at the end of the incubation periods was determined. For inhibition to have occurred, the amounts of CBG present at the end of the incubation period needed to increase, and the amounts of glucuronide formed needed to decrease.

rUGT2B7 = target: T2, rUGT2B7 (Homo sapiens, UniProt P16662); assay: Inhibition of CBG glucuronidation by Compound 1; assay type: biochemical; details: for CBG detected, Percent of control / CBG glucuronide formed, Percent of control: rUGT2B7; for CBG detected / CBG glucuronide formed: rUGT2B7, 5 min
T2 sequence (P16662 24-529): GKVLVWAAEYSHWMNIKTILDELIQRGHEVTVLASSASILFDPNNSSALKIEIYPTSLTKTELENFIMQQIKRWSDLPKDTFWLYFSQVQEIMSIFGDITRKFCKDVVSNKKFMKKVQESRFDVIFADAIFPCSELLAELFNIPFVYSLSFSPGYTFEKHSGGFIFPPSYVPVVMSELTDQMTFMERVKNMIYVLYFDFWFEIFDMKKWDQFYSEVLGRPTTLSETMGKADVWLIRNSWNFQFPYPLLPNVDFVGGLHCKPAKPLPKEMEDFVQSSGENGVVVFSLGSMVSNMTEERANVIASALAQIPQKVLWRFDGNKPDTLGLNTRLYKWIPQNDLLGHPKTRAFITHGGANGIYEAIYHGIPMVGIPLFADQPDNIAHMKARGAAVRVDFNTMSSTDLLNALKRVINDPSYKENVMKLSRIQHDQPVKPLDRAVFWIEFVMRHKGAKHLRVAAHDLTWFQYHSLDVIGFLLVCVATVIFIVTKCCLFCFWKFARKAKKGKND
Experimental: as §1, §2, §3, §4, §5, §6

For `CCCCCc1cc(O)c(C/C=C(\C)CCC=C(C)C)c(OC)c1` [Compound 1, (E)-2-(3,7-dimethylocta-2,6-dien-1-yl)-3-methoxy-5-pentylphenol], the “CBG detected, Percent of control” value (rUGT1A9; 10 μM CBG + 0.01 μM Compound 1) was 109% of control, the “CBG glucuronide formed, Percent of control” value (rUGT1A9; 10 μM CBG + 0.01 μM Compound 1) was 94.4% of control and the CBG detected (rUGT1A9; 10 μM CBG + 0.01 μM Compound 1) was 1250 pmol. For the same compound, the CBG glucuronide formed (rUGT1A9; 10 μM CBG + 0.01 μM Compound 1) was 350000 area ratio, the “CBG detected, Percent of control” value (rUGT1A9; 10 μM CBG + 0.03 μM Compound 1) was 110% of control and the “CBG glucuronide formed, Percent of control” value (rUGT1A9; 10 μM CBG + 0.03 μM Compound 1) was 97.1% of control. The CBG detected (rUGT1A9; 10 μM CBG + 0.03 μM Compound 1) was 1250 pmol, the CBG glucuronide formed (rUGT1A9; 10 μM CBG + 0.03 μM Compound 1) was 360000 area ratio and the “CBG detected, Percent of control” value (rUGT1A9; 10 μM CBG + 0.1 μM Compound 1) was 112% of control. For the same compound, the “CBG glucuronide formed, Percent of control” value (rUGT1A9; 10 μM CBG + 0.1 μM Compound 1) was 92.0% of control, the CBG detected (rUGT1A9; 10 μM CBG + 0.1 μM Compound 1) was 1280 pmol and the CBG glucuronide formed (rUGT1A9; 10 μM CBG + 0.1 μM Compound 1) was 341000 area ratio. The “CBG detected, Percent of control” value (rUGT1A9; 10 μM CBG + 0.3 μM Compound 1) was 114% of control, the “CBG glucuronide formed, Percent of control” value (rUGT1A9; 10 μM CBG + 0.3 μM Compound 1) was 94.4% of control and the CBG detected (rUGT1A9; 10 μM CBG + 0.3 μM Compound 1) was 1300 pmol. For the same compound, the CBG glucuronide formed (rUGT1A9; 10 μM CBG + 0.3 μM Compound 1) was 350000 area ratio, the “CBG detected, Percent of control” value (rUGT1A9; 10 μM CBG + 1 μM Compound 1) was 106% of control and the “CBG glucuronide formed, Percent of control” value (rUGT1A9; 10 μM CBG + 1 μM Compound 1) was 92.6% of control. The CBG detected (rUGT1A9; 10 μM CBG + 1 μM Compound 1) was 1210 pmol, the CBG glucuronide formed (rUGT1A9; 10 μM CBG + 1 μM Compound 1) was 343000 area ratio and the “CBG detected, Percent of control” value (rUGT1A9; 10 μM CBG + 3 μM Compound 1) was 105% of control. The “CBG glucuronide formed, Percent of control” value (rUGT1A9; 10 μM CBG + 3 μM Compound 1) was 93.6% of control, the CBG detected (rUGT1A9; 10 μM CBG + 3 μM Compound 1) was 1200 pmol and the CBG glucuronide formed (rUGT1A9; 10 μM CBG + 3 μM Compound 1) was 347000 area ratio. The “CBG detected, Percent of control” value (rUGT1A9; 10 μM CBG + 10 μM Compound 1) was 99.8% of control, the “CBG glucuronide formed, Percent of control” value (rUGT1A9; 10 μM CBG + 10 μM Compound 1) was 92.8% of control and the CBG detected (rUGT1A9; 10 μM CBG + 10 μM Compound 1) was 1140 pmol. The CBG glucuronide formed (rUGT1A9; 10 μM CBG + 10 μM Compound 1) was 344000 area ratio, the “inhibition of the conversion of CBG to a glucuronide (in words)” value (rUGT1A9; UGT1A9, 0.01-10 μM Compound 1) was “not an effective inhibitor” and the “CBG detected, Percent of control” value (rUGT2B7; 10 μM CBG + 0.01 μM Compound 1) was 103% of control. The “CBG glucuronide formed, Percent of control” value (rUGT2B7; 10 μM CBG + 0.01 μM Compound 1) was 104% of control, the CBG detected (rUGT2B7; 10 μM CBG + 0.01 μM Compound 1) was 1370 pmol and the CBG glucuronide formed (rUGT2B7; 10 μM CBG + 0.01 μM Compound 1) was 260000 area ratio. The “CBG detected, Percent of control” value (rUGT2B7; 10 μM CBG + 0.03 μM Compound 1) was 109% of control, the “CBG glucuronide formed, Percent of control” value (rUGT2B7; 10 μM CBG + 0.03 μM Compound 1) was 101% of control and the CBG detected (rUGT2B7; 10 μM CBG + 0.03 μM Compound 1) was 1460 pmol. The CBG glucuronide formed (rUGT2B7; 10 μM CBG + 0.03 μM Compound 1) was 252000 area ratio, the “CBG detected, Percent of control” value (rUGT2B7; 10 μM CBG + 0.1 μM Compound 1) was 106% of control and the “CBG glucuronide formed, Percent of control” value (rUGT2B7; 10 μM CBG + 0.1 μM Compound 1) was 103% of control. The CBG detected (rUGT2B7; 10 μM CBG + 0.1 μM Compound 1) was 1410 pmol, the CBG glucuronide formed (rUGT2B7; 10 μM CBG + 0.1 μM Compound 1) was 257000 area ratio and the “CBG detected, Percent of control” value (rUGT2B7; 10 μM CBG + 0.3 μM Compound 1) was 109% of control. The “CBG glucuronide formed, Percent of control” value (rUGT2B7; 10 μM CBG + 0.3 μM Compound 1) was 105% of control, the CBG detected (rUGT2B7; 10 μM CBG + 0.3 μM Compound 1) was 1450 pmol and the CBG glucuronide formed (rUGT2B7; 10 μM CBG + 0.3 μM Compound 1) was 262000 area ratio. The “CBG detected, Percent of control” value (rUGT2B7; 10 μM CBG + 1 μM Compound 1) was 109% of control, the “CBG glucuronide formed, Percent of control” value (rUGT2B7; 10 μM CBG + 1 μM Compound 1) was 102% of control and the CBG detected (rUGT2B7; 10 μM CBG + 1 μM Compound 1) was 1460 pmol. The CBG glucuronide formed (rUGT2B7; 10 μM CBG + 1 μM Compound 1) was 253000 area ratio, the “CBG detected, Percent of control” value (rUGT2B7; 10 μM CBG + 3 μM Compound 1) was 108% of control and the “CBG glucuronide formed, Percent of control” value (rUGT2B7; 10 μM CBG + 3 μM Compound 1) was 101% of control. For the same compound, the CBG detected (rUGT2B7; 10 μM CBG + 3 μM Compound 1) was 1440 pmol, the CBG glucuronide formed (rUGT2B7; 10 μM CBG + 3 μM Compound 1) was 252000 area ratio and the “CBG detected, Percent of control” value (rUGT2B7; 10 μM CBG + 10 μM Compound 1) was 111% of control. The “CBG glucuronide formed, Percent of control” value (rUGT2B7; 10 μM CBG + 10 μM Compound 1) was 96.0% of control, the CBG detected (rUGT2B7; 10 μM CBG + 10 μM Compound 1) was 1470 pmol and the CBG glucuronide formed (rUGT2B7; 10 μM CBG + 10 μM Compound 1) was 239000 area ratio. For the same compound, the “inhibition of the conversion of CBG to a glucuronide (in words)” value (rUGT2B7; UGT2B7, 0.01-10 μM Compound 1) was “not an effective inhibitor”.
